Patent US8815915B2, “Benzofuran-2-sulfonamides pyridine derivatives as chemokine receptor modulators” (Allergan, Inc., priority 2012, dated 2014)
pIC50: −log10 of the molar value. Like-named read-outs stand apart in the source and are kept apart here.

Target: T1, CCR2 receptor (Homo sapiens, UniProt P41597)
T1 construct: expressed in transfected cells
Test: compound-induced calcium activity on FLIPR Tetra in HEK-Gqi5 cells stably expressing CCR2
Format: cell-based
Method: HEK-Gqi5 cells stably expressing CCR2 were cultured in (DMEM high glucose, 10% FBS, 1% PSA, 400 μg/ml geneticin and 50 μg/ml hygromycin. Appropriate positive control chemokines (MCP-1, MIP1A or RANTES) was used as the positive control agonist for screening compound-induced calcium activity assayed on the FLIPR^Tetra. The drug plates were prepared in 384-well microplates using the EP3 and the MultiPROBE robotic liquid handling systems. Compounds were synthesized and tested for CCR2 activity.

[1] = CCR2 receptor, HEK-Gqi5 cells stably expressing CCR2, calcium FLIPR Tetra
[2] = CCR2 receptor, HEK-Gqi5 cells stably expressing CCR2, calcium FLIPR Tetra, read-out: IC50

T1 sequence (P41597 whole entry): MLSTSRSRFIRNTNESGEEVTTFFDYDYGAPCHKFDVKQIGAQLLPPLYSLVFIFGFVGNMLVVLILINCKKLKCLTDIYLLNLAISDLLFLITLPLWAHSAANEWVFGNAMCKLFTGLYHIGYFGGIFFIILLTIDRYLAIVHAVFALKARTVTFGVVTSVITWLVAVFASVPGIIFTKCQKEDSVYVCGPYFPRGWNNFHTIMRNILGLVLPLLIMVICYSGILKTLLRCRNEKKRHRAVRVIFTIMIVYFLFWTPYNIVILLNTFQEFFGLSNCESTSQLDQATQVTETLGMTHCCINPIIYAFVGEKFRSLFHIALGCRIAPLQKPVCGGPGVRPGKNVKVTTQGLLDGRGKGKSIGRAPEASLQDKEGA

| SMILES | % ANTAGONISM [1] [%] | pIC50 [2] | pIC50 |
| --- | --- | --- | --- |
| Nc1cccc(CSc2ncccc2NS(=O)(=O)c2cc3ccccc3o2)c1 [Compound 11, N-{2-[(3-aminobenzyl)sulfanyl]pyridin-3-yl}-1-benzofuran-2-sulfonamide] | 99 | 6.99 | – |
| O=S(=O)(Cc1cccnc1)c1ncc(Cl)cc1NS(=O)(=O)c1cc2ccccc2o1 [Compound 6, N-{5-chloro-2-[(pyridin-3-ylmethyl)sulfonyl]pyridin-3-yl}-1-benzofuran-2-sulfonamide] | 84 | 5.67 | – |
| O=S(=O)(Cc1ccc[n+]([O-])c1)c1ncc(Cl)cc1NS(=O)(=O)c1cc2ccccc2o1 [Compound 7, N-(5-chloro-2-{[(1-oxidopyridin-3-yl)methyl]sulfonyl}pyridin-3-yl)-1-benzofuran-2-sulfonamide] | 100 | 6.89 | – |
| O=S(=O)(Cc1ccccc1)c1ncc(Cl)cc1NS(=O)(=O)c1cc2ccccc2o1 [Compound 3, N-[2-(benzylsulfonyl)-5-chloropyridin-3-yl]-1-benzofuran-2-sulfonamide] | 90 | 7.72 | – |
| O=C(O)c1ccccc1Sc1ncc(Cl)cc1NS(=O)(=O)c1cc2ccccc2o1 [Compound 47, 2-({3-[(1-benzofuran-2-ylsulfonyl)amino]-5-chloropyridin-2-yl}sulfanyl)benzoic acid] | 102 | 5.91 | – |
| O=S(=O)(Nc1cc(Cl)cnc1[S+]([O-])Cc1cccnc1)c1cc2ccccc2o1 (stereo not drawn) [Compound 5, N-{5-chloro-2-[(pyridin-3-ylmethyl)sulfinyl]pyridin-3-yl}-1-benzofuran-2-sulfonamide] | 99 | 6.70 | – |
| O=S(=O)(Nc1cc(Cl)cnc1SCc1ccccc1)c1cc2ccccc2o1 [Compound 1, N-[2-(benzylthio)-5-chloropyridin-3-yl]-1-benzofuran-2-sulfonamide] | 83 | 6.60 | – |
| O=S(=O)(Nc1cc(F)cnc1SCc1ccccc1)c1cc2ccccc2o1 [Compound 15, N-[2-(benzylsulfanyl)-5-fluoropyridin-3-yl]-1-benzofuran-2-sulfonamide] | 94 | 6.90 | – |
| Cc1cnc(S(=O)(=O)Cc2ccccc2)c(NS(=O)(=O)c2cc3ccccc3o2)c1 [Compound 23, N-[2-(benzylsulfonyl)-5-methylpyridin-3-yl]-1-benzofuran-2-sulfonamide] | 96 | 7.92 | – |
| COC(=O)c1ccccc1CS(=O)(=O)c1ncccc1NS(=O)(=O)c1cc2ccccc2o1 [Compound 60, methyl 2-[({3-[(1-benzofuran-2-ylsulfonyl)amino]pyridin-2-yl}sulfonyl)methyl]benzoate] | 101 | 7.07 | – |
| O=C1CCN(C(=O)c2ncc(Cl)cc2NS(=O)(=O)c2cc3ccccc3o2)CC1 [Compound 28, N-{5-chloro-2-[(4-oxopiperidin-1-yl)carbonyl]pyridin-3-yl}-1-benzofuran-2-sulfonamide] | 105 | – | 7.62 |
| O=S(=O)(Nc1cccnc1SCc1ccccc1)c1cc2ccccc2o1 [Compound 8, N-[2-(benzylthio)pyridin-3-yl]-1-benzofuran-2-sulfonamide] | 80 | 5.52 | – |
| O=C(O)c1ccccc1CSc1ncc(Cl)cc1NS(=O)(=O)c1cc2ccccc2o1 [Compound 36, 2-[({3-[(1-benzofuran-2-ylsulfonyl)amino]-5-chloropyridin-2-yl}sulfanyl)methyl]benzoic acid] | 97 | 6.47 | – |
| COC(=O)c1ccccc1C[S+]([O-])c1ncccc1NS(=O)(=O)c1cc2ccccc2o1 (stereo not drawn) [Compound 58, methyl 2-[({3-[(1-benzofuran-2-ylsulfonyl)amino]pyridin-2-yl}sulfinyl)methyl]benzoate] | 102 | 6.70 | – |
| O=C(O)c1ccccc1CS(=O)(=O)c1ncc(Cl)cc1NS(=O)(=O)c1cc2ccccc2o1 [Compound 39, 2-[({3-[(1-benzofuran-2-ylsulfonyl)amino]-5-chloropyridin-2-yl}sulfonyl)methyl]benzoic acid] | 32 | 5.57 | – |
| O=C(c1ccccc1)c1ncc(Cl)cc1NS(=O)(=O)c1cc2ccccc2o1 [Compound 29, N-[5-chloro-2-(phenylcarbonyl)pyridin-3-yl]-1-benzofuran-2-sulfonamide] | 100 | 7.44 | – |
| Cc1cnc([S+]([O-])Cc2ccccc2)c(NS(=O)(=O)c2cc3ccccc3o2)c1 (stereo not drawn) [Compound 22, N-[2-(benzylsulfinyl)-5-methylpyridin-3-yl]-1-benzofuran-2-sulfonamide] | 103 | 7.60 | – |
| Nc1cccc(C[S+]([O-])c2ncc(Cl)cc2NS(=O)(=O)c2cc3ccccc3o2)c1 (stereo not drawn) [Compound 19, N-{2-[(3-aminobenzyl)sulfinyl]-5-chloropyridin-3-yl}-1-benzofuran-2-sulfonamide] | 97 | 7.00 | – |

| SMILES | % ANTAGONISM [1] [%] | pIC50 [2] | pIC50 |
| --- | --- | --- | --- |
| COC(=O)c1ccccc1Oc1ncc(Cl)cc1NS(=O)(=O)c1cc2ccccc2o1 [Compound 25, methyl 2-({3-[(1-benzofuran-2-ylsulfonyl)amino]-5-chloropyridin-2-yl}oxy)benzoate] | 93 | 6.67 | – |
| Cc1ncccc1Oc1ncc(Cl)cc1NS(=O)(=O)c1cc2ccccc2o1 [Compound 24, N-{5-chloro-2-[(2-methylpyridin-3-yl)oxy]pyridin-3-yl}-1-benzofuran-2-sulfonamide] | 90 | 7.47 | – |
| Nc1cccc(CS(=O)(=O)c2ncccc2NS(=O)(=O)c2cc3ccccc3o2)c1 [Compound 14, N-{2-[(3-aminobenzyl)sulfonyl]pyridin-3-yl}-1-benzofuran-2-sulfonamide] | 102 | 7.15 | – |
| O=S(=O)(Nc1cc(Cl)cnc1S(=O)(=O)c1ccccc1)c1cc2ccccc2o1 [Compound 31, N-[5-chloro-2-(phenylsulfonyl)pyridin-3-yl]-1-benzofuran-2-sulfonamide] | 105 | 7.77 | – |
| O=C(O)c1ccccc1CS(=O)(=O)c1ncccc1NS(=O)(=O)c1cc2ccccc2o1 [Compound 61, 2-[({3-[(1-benzofuran-2-ylsulfonyl)amino]pyridin-2-yl}sulfonyl)methyl]benzoic acid] | 57 | – | – |
| CC(C)(C)OC(=O)Nc1cccc(CS(=O)(=O)c2ncccc2NS(=O)(=O)c2cc3ccccc3o2)c1 [Compound 13, tert-butyl {3-[({3-[(1-benzofuran-2-ylsulfonyl)amino]pyridin-2-yl}sulfonyl)methyl]phenyl}carbamate] | 102 | 6.30 | – |
| O=C(O)c1cccc(Sc2ncc(Cl)cc2NS(=O)(=O)c2cc3ccccc3o2)c1 [Compound 48, 3-({3-[(1-benzofuran-2-ylsulfonyl)amino]-5-chloropyridin-2-yl}sulfanyl)benzoic acid] | 96 | 6.10 | – |
| Cc1cnc([S+]([O-])c2ccccc2)c(NS(=O)(=O)c2cc3ccccc3o2)c1 (stereo not drawn) [Compound 45, N-[5-methyl-2-(phenylsulfinyl)pyridin-3-yl]-1-benzofuran-2-sulfonamide] | 105 | 6.34 | – |
| COC(=O)c1ccccc1CSc1ncccc1NS(=O)(=O)c1cc2ccccc2o1 [Compound 56, methyl 2-[({3-[(1-benzofuran-2-ylsulfonyl)amino]pyridin-2-yl}sulfanyl)methyl]benzoate] | 92 | 5.76 | – |
| O=S(=O)(Nc1cc(F)cnc1[S+]([O-])Cc1ccccc1)c1cc2ccccc2o1 (stereo not drawn) [Compound 16, N-[2-(benzylsulfinyl)-5-fluoropyridin-3-yl]-1-benzofuran-2-sulfonamide] | 95 | 7.74 | – |
| Cc1cnc(SCc2ccccc2)c(NS(=O)(=O)c2cc3ccccc3o2)c1 [Compound 21, N-[2-(benzylsulfanyl)-5-methylpyridin-3-yl]-1-benzofuran-2-sulfonamide] | 80 | 6.71 | – |
| O=S(=O)(Cc1ccccc1)c1ncc(F)cc1NS(=O)(=O)c1cc2ccccc2o1 [Compound 17, N-[2-(benzylsulfonyl)-5-fluoropyridin-3-yl]-1-benzofuran-2-sulfonamide] | 101 | 7.37 | – |
| COC(=O)c1ccccc1C[S+]([O-])c1ncc(Cl)cc1NS(=O)(=O)c1cc2ccccc2o1 (stereo not drawn) [Compound 37, methyl 2-[({3-[(1-benzofuran-2-ylsulfonyl)amino]-5-chloropyridin-2-yl}sulfinyl)methyl]benzoate] | 95 | 6.72 | – |
| O=S(=O)(Nc1cc(Cl)cnc1[S+]([O-])c1ccccc1)c1cc2ccccc2o1 (stereo not drawn) [Compound 32, N-[5-chloro-2-(phenylsulfinyl)pyridin-3-yl]-1-benzofuran-2-sulfonamide] | 99 | 8.15 | – |
| O=S(=O)(Nc1cc(F)cnc1[S+]([O-])c1ccccc1)c1cc2ccccc2o1 (stereo not drawn) [Compound 41, N-[5-fluoro-2-(phenylsulfinyl)pyridin-3-yl]-1-benzofuran-2-sulfonamide] | 97 | 7.17 | – |
| COC(=O)c1ccccc1CSc1ncc(Cl)cc1NS(=O)(=O)c1cc2ccccc2o1 [Compound 35, methyl 2-[({3-[(1-benzofuran-2-ylsulfonyl)amino]-5-chloropyridin-2-yl}sulfanyl)methyl]benzoate] | 91 | 5.37 | – |
| O=C(O)c1ccccc1Oc1ncc(Cl)cc1NS(=O)(=O)c1cc2ccccc2o1 [Compound 26, 2-({3-[(1-benzofuran-2-ylsulfonyl)amino]-5-chloropyridin-2-yl}oxy)benzoic acid] | 97 | 6.80 | – |
